Experimental data as given in publication PMC8899577, “Targeting the anti-apoptotic Bcl-2 family proteins: machine learning virtual screening and biological evaluation of new small molecules” (Theranostics, 2022).

System: U937 xenografts
Assay: In vivo tumor growth, U937 xenografts
Parameters: species or system athymic CD1 nude mice
Description: All procedures involving mice and their care were authorized and certified by the decree no. 67/97A of the Italian Minister of Health and protocol 2560/97 of the Rome Health Service Unit (ASL RMB). Regina Elena National Cancer Institute approved all the procedures involving animals. 5 x 10^6 U937 (in 50% Matrigel, Corning, NY, USA) or A375 cells were subcutaneously injected in the right flank of 6-8-week-old female immunodeficient athymic CD1 nude mice. IS21 was dissolved in 10% DMSO, 30% PEG400 and 60% NaCl (vehicle). Intraperitoneal treatment of vehicle or IS21 (8 mice for each group) every 24 h started when tumors reached the palpability (6 days for U937 and 7 days for A375 cells). […] Animals were observed daily, weighted two times/week and tumor volume (mm^3) calculated as length × width^2 × π/6. At the end of the treatment the tumors were collected and weighed.
Based on pharmacokinetic analysis, we next evaluated the effect of IS21 on in vivo tumor growth of leukemic and melanoma derived xenografts. To this aim, U937 were injected subcutaneously and treated for two weeks with vehicle or with IS21 (70 mg/kg or 100 mg/kg, 5 days/week).
Figure 9 Analysis in vivo of the effect of IS21 on both leukemia and melanoma models. Analysis of in vivo tumor growth in nude mice injected with (A) U937 and (B) A375 cells and treated with vehicle or with IS21 at the indicated concentrations for (A) two or (B) three weeks. Experiments were repeated twice. * p < 0.05, *** p < 0.0002, **** p < 0.0001.

CCCCCOc1ccc(C2/C(=C(\O)c3ccc4c(c3)CC(C)O4)C(=O)C(=O)N2c2nnc(SCc3ccc(Cl)cc3)s2)cc1OCC (stereo not shown) [IS21]
delay of tumor growth (U937, 100 mg/kg until day 22, compared with control or 70 mg/kg): about 11 days
growth of U937 xenografts (i.p. 70 mg/kg or 100 mg/kg, 5 days/week, two weeks): reduced significantly
day after cell injection from which U937 xenograft growth is significantly reduced (i.p. 70 mg/kg, 5 days/week, two weeks): 19 days
day after cell injection from which U937 xenograft growth is significantly reduced (i.p. 100 mg/kg, 5 days/week, two weeks): 16 days
